Entries after “also recorded” stand apart in the source; their conditions may differ. *1 amine or outer side, *2 acyl side, *3 side chain or, on linkers, in order; H or OH if unused. Where no end group is shown, it is not given here. [ ]: non-standard residue; d: D form. mp2 = 4-amino-1-methyl-1H-pyrrole-2-carboxylic acid, Cn1cc(N[*:1])cc1C(=O)[*:2]
Key:
[1] = test system: MRSA; assay: MRSA skin infection model; type: in vivo, mouse; details: 48 or 96 h after bacterial challenge
Experimental: Infection was initiated 1 day after the hair was removed from the dorsal area of each mouse. RIVPA (SEQ ID NO. 5) (25 mg/kg IV or 100 mg/kg SC) was administered 4 h prior to infection and at various times after infection as indicated. Oral linezolid was used as the comparator and was administered daily at 12.5 mg/kg. On Day 0 (at −1 h) each mouse was anesthetized using isoflurane and the shaved dorsal skin was damaged by 7 consecutive applications and removals of surgical tape. This lesion was then immediately infected by topical administration of 10 μL of the bacterial suspension, delivering a total challenge of 7.6 login cfu per mouse. Efficacy was evaluated by measurement of the bacterial burden in punch biopsies of the skin at 48 h (FIG. 14—panel A) and 96 h (FIG. 14—panel B) following the bacterial challenge and by macroscopic assessment of digital images of the skin by a blinded, board-certified pathologist at 48 h (FIG. 14—panel C) and 96 h (FIG. 14—panel D) after infection. […] The mean bacterial burden for each therapeutic group was statistically compared to that of its time-matched saline control through use of a t-test comparison of means, assuming unequal variances, performed on Excel. Comparisons which returned a p value […] were considered statistically different.

[2] = test system: male C3H/HeN mice; assay: chemotherapy-induced oral and gastrointestinal mucositis in the mouse; type: in vivo; details: 25 mg/kg IV on Days −1 and 2, scores evaluated for 4 days after induction
Experimental: In each study, 5-fluorouracil (60 mg/kg IP) was administered to male C3H/HeN mice on Days −4 and −2. […] […] Body weights were also measured daily and colitis severity was determined by video endoscopy on Days 4 and 7. In the first study, RIVPA (SEQ ID NO. 5) (25 mg/kg IV) was administered either once on Day −4 immediately prior to chemotherapy, twice on Days −4 and −2 immediately after chemotherapy or 3 times on Days −1, 2 and 5. […] In the second study, RIVPA (SEQ ID NO. 5) (25 mg/kg IV) was administered on either Days −1, 2 and 5, Days −1, 1 and 3 or Days 0, 2, and 4. […] In the third study, RIVPA (SEQ ID NO. 5) (25 or 5 mg/kg IV, as indicated) was administered either on Days −1, 2 and 5 or on Days 1 and 3. […] Statistical significance was assessed for oral mucositis using a chi-square analysis and for body weight area under the curve (AUC) with an ANOVA on ranks. […] Treatment with R(tBg)V1KR(tBg)V2 (SEQ ID NO. 91) and RIV(mp2)A-NH2 (SEQ ID NO. 92) was administered on Days −1 and 2 at a dose of 25 mg/kg IV.

[3] = test system: MRSA; assay: MRSA bacteremia model (other IDR peptides); type: in vivo; details: 5 mg/kg administered 4 hours prior to infection

Row | Molecule | bacterial load in skin punch biopsies relative to control [1] | severity of oral mucositis (mucositis scores) [2] | survival [3] | severity of oral mucositis (mucositis scores) ([2]; listed as 92)
1 | CC(=O)NC[C@H]1CN(c2ccc(N3CCOCC3)c(F)c2)C(=O)O1 [linezolid, reference compound] | neither linezolid nor RIVPA (SEQ ID NO. 5) reduced bacterial load |  |  | 
2 | R(tBg)V1KR(tBg)V2 [R(tBg)V1KR(tBg)V2 (SEQ ID NO. 91)] |  | reduces; also recorded: demonstrated efficacy | improve survival; also recorded: enhances survival | 
3 | RIV(mp2)A-NH2 (RIV[mp2]A-NH2; N-terminus assumed; SMILES CC[C@H](C)[C@H](NC(=O)[C@@H](N)CCCNC(=N)N)C(=O)N[C@H](C(=O)Nc1cc(C(=O)N[C@@H](C)C(N)=O)n(C)c1)C(C)C) [RIV(mp2)A-NH2 (SEQ ID NO. 92), mp2 = 4-Amino-1-methyl-1H-pyrrole-2-carboxylic acid] |  | reduces | enhances survival | demonstrated efficacy
4 | RIVPAY* (RIVPA[dY]; also: C-terminal modification (*)) [RIVPAY* (SEQ ID NO. 90)] |  |  | improve survival | 
